Laboratory results: patent US6555114B1, “Immunodominant human T-cell epitopes of hepatitis C virus” (Innogenetics N.V., priority 1993, dated 2003)

What was measured:
[1] = tested on: PBMC from 32 patients with chronic HCV; experiment: T cell proliferation assay ((3H)-thymidine incorporation, stimulation index) with PBMC of chronic HCV patients; type: cell-based, human; conditions: for lymphoproliferative response (LPR) to peptide pools and single peptides: IFN responder, LPR to pools 2 and/or 3
[2] = tested on: PBMC's from 18 healthy control subjects; experiment: T cell proliferation assay with PBMC of healthy control subjects; type: cell-based, human; conditions: 17 control subjects, 23 proliferation assays
Protocol: As controls for the specificity of the lymphoproliferative responses, 18 healthy individuals aged 25-58 years (mean 38.6), 10 males and 8 females were selected. These subjects were negative for HCV antibodies and HCV-RNA.
The medium used for all cell cultures consisted of RPMI 1640 supplemented with 25 mM HEPES, 2 mM L-glutamine, 50 U/ml penicillin and 50 μg/ml streptomycin (all from Gibco Europe, Gent, Belgium), 5×10^−5 M 2-mercaptoethanol (Sigma, St. Louis, Mo.) and 10% heat-inactivated pooled human AB serum. This AB serum was obtained from healthy blood donors with blood group AB^+ and was only used when antibodies to HCV and HCV-RNA were absent. This “complemented” RPMI 1640 medium will hereafter be designated “complete medium”.
PBMC were isolated from heparinized venous blood by isopycnic density centrifugation on Ficoll Hypaque (Lymphoprep, Nyegaard, Denmark) and suspended in complete medium. […] PBMC in 200 μl of complete medium were cultured in 96 well round-bottomed microplates (Falcon Plastics) in the absence (unstimulated controls) or presence of varying concentrations of antigens for 5 days at 37° C. in an atmosphere of 5% CO2 in air. 0.5 μCi (^3H)-thymidine was then added to each well and 16 to 20 h later the cultures were harvested onto glass fiber filters using a multichannel cell harvester (PHD, Cambridge, Mass.) to measure the incorporation of (^3H)-thymidine by liquid scintillation counting in an LKB-Wallac 8100 counter (LKB, Bromma, Sweden). Results are expressed as stimulation index (SI; mean cpm of antigen-stimulated cultures/mean cpm of control cultures). Proliferation was considered positive when stimulation index was >3. In some figures the results are expressed as cpm (mean cpm of antigen-stimulated cultures—mean cpm of control cultures). Standard deviations of the mean cpm of triplicate cultures were consistently below 10%.
To analyze and summarize the results of 135 assays performed in the 32 HCV patients, we have chosen to consider the response of an individual patient to a particular antigen preparation (peptide pools 1 to 9, NS1-5*, NS1-7* or NS3 protein) as significant when it induces SI's 3 in at least half of the assays performed. The results shown in Table 4 have been obtained using this scoring method. […] The start of the Interferon therapy serves as the reference point, week 0. None of the patients responded to all the antigens. PBMC's from 13 of 18 (72%) clinical responders and 12 of 14 (85%) non-responders proliferated in response to at least one antigen preparation. All but one antigen preparation, peptide pool 8, induced a proliferative response in at least one subject. The most frequent responses were to peptide pools 2 and 3. Whereas both interferon-responders and non-responders proliferated equally well to peptide pool 2 (56% and 57%, respectively), non-responders reacted less well to peptide pool 3 (29% or 4 of 14) than responders (44% or 8 of 18). […] Clinical non-responders to interferon therapy also reacted more frequently (57 or 8 of 14) upon stimulation with the NS3 protein than responders (24% or 4 of 17). However, none of these differences in proliferative response rates to peptide pools 3, 5 and 9 or to NS3 protein reached statistical significance ([…] in ^2-test). […] Indeed, 8 of 17 responders recognized one or both peptides while none of the non-responders did so. A summary of the results of all these proliferation assays is provided in FIG. 2, in which the response rates of the HCV patients as well as 18 healthy control subjects towards the 12 antigen preparations. Indeed, to establish the relevance of the proliferative responses observed in HCV patients, PBMC's from 18 healthy control subjects were stimulated with the same antigen preparations. Overall, 27 assays were performed: a single assay in 10 subjects, two in 7 volunteers and 3 in one individual. In 12 control subjects none of the antigens induced a proliferative response. […]

[3] = patient 626, αIFN responder (R), week 14 of αIFN therapy
[4] = patient 627, αIFN non-responder (NR), week 54 of αIFN therapy
[5] = patient 636, αIFN responder (R), week 28 of αIFN therapy
[6] = patient 637, αIFN non-responder (NR), week 45 of αIFN therapy

| Sequence | stimulation index (SI), T-cell recognition ([1]; patient 620, αIFN non-responder (NR), week 20 of αIFN therapy) | stimulation index (SI), T-cell recognition [1, 3] | stimulation index (SI), T-cell recognition [1, 4] | stimulation index (SI), T-cell recognition [1, 5] | stimulation index (SI), T-cell recognition [1, 6] | lymphoproliferative response (LPR) to peptide pools and single peptides ([1]; patient 639, pools 4 assays, single peptides 2 assays) | number of control subjects that recognized the single peptide [2] | share of control subjects that recognized the single peptide [2] [%] | LPR in αIFN responders (summary of Table 7) ([1]; both αIFN responders tested) | lymphoproliferative response (LPR) to peptide pools and single peptides ([1]; patient 632, pools 8 assays, single peptides 4 assays) | LPR in αIFN non-responders (summary of Table 7) ([1]; two αIFN non-responders) |
| --- | --- | --- | --- | --- | --- | --- | --- | --- | --- | --- | --- |
| LLSCLTVPASAYQVRNSTGL [C31] | — (Only SI equal or greater than 3 are shown.) | — (Only SI equal or greater than 3 are shown.) | — (Only SI equal or greater than 3 are shown.) | — (Only SI equal or greater than 3 are shown.) | — (Only SI equal or greater than 3 are shown.) | + (significant when it induces SI's 3 in at least half of the assays performed) | 1 | 6 | – | – | – |
| LLSPRGSRPSWGPTDPRRRS (hepatitis C virus) [C17] | – | — (Only SI equal or greater than 3 are shown.) | — (Only SI equal or greater than 3 are shown.) | — (Only SI equal or greater than 3 are shown.) | — (Only SI equal or greater than 3 are shown.) | – | 2 | 12 | – | – | – |
| KVIDTLTCGFADLMGYIPLV (hepatitis C virus) [C21] | – | 3.3 | 3.6 | — (Only SI equal or greater than 3 are shown.) | — (Only SI equal or greater than 3 are shown.) | – | 1 | 6 | highest LPR | + (significant when it induces SI's 3 in at least half of the assays performed) | high PLR |
